Measured values as given in patent US20090062255A1, “TUMOR-TARGETING EVALUATION METHODOLOGY AND COMPOUNDS RELATED THERETO” (THALLION PHARMACEUTICALS INC., priority 2007, published 2009).
Where “and” joins values, the source holds several entries; their conditions need not be identical. Equal entries are not always repeated. Entries after “also recorded” stand apart in the source; their conditions may differ. Where two headings read alike, the source gives them in different places.

What was measured:
human MAPK1 (ERK1) = biological target: T1, human MAPK1 (ERK1) (Homo sapiens, UniProt P27361); experiment: Upstate Kinase Profiler, MAPK1 (ERK1); assay type: biochemical
T1 construct: purchased Upstate (Kinase Profiler Service; Dundee, UK)
T1 sequence (P27361 whole entry): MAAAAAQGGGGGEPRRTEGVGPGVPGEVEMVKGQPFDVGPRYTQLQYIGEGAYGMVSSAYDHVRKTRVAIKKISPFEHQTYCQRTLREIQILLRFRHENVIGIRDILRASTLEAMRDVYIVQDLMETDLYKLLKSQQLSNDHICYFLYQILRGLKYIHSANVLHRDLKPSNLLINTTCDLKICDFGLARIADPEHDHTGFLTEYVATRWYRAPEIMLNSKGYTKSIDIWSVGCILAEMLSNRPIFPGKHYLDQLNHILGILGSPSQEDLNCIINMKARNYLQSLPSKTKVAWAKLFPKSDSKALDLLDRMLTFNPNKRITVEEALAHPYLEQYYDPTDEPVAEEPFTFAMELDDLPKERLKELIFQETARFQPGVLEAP
Description: (§1) Unlike current Ras signalling pathway inhibitors, ECO-4601 is not a direct kinase inhibitor. This was documented by evaluating the effect of ECO-4601 on human EGFR, c-RAF, MEK1, MAPK1 (ERK1) and MAPK2 (ERK2) kinase-activity (Upstate Kinase Profiler™ Service; Dundee, UK). ECO-4601 was tested at 0.5 μM and 5 μM in a final volume of 25 μL according to standard protocols developed by Upstate Ltd. Briefly, purified recombinant human enzymes were incubated with 25 mM Tris pH 7.5 containing EGTA, a specific substrate and γ-^32P-ATP. The reaction was initiated with MgATP mix and incubated for 40 minutes at RT. The reaction was stopped by the addition of 5 μL of a 3% phosphoric acid solution; aliquots were spotted on filters and counted. Detailed procedures are available on the Millipore Upstate website.

human MEK1 = biological target: T2, human MEK1 (Homo sapiens, UniProt Q02750); experiment: Upstate Kinase Profiler, MEK1; assay type: biochemical
T2 construct: purchased Upstate (Kinase Profiler Service; Dundee, UK)
T2 sequence (Q02750 whole entry): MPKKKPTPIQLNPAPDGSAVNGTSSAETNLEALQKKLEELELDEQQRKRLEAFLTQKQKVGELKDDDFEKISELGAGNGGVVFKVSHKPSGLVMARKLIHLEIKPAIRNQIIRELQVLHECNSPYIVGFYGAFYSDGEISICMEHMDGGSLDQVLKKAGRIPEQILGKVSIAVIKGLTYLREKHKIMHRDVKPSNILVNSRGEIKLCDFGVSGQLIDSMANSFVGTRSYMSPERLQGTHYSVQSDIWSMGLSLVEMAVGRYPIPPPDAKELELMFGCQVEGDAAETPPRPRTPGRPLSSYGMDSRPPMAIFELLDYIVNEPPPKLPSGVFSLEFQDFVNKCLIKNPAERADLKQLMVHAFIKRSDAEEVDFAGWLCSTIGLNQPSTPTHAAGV
Description: as §1

[1] = test system: prenylation of Ras, RAP1A and HDJ2 (FTase, GGTase I); experiment: Protein prenylation immunoblot (FTase and GGTase I activities) in MCF-7 cells; assay type: cell-based, human; settings: MCF7 cells, 3, 10 and 30 μM, 24 h; listed as ECO-4601
Description: It was first verified if ECO-4601 interferes with Ras processing by monitoring FTase and GGTase I activities by immunoblot analysis. For these experiments, exponentially growing MCF-7 (human breast tumor) cells were seeded in 60 mm cell culture dishes at a density of 2.5×10^6 cells per dish. After an 18 h incubation period, ECO-4601 or lovastatin (Sigma-Aldrich, St. Louis, Mo.) were added at a final concentration of 3, 10 and 30 μM for 24 h. Cells were also treated with the vehicle alone (0.05% DMSO) for the same incubation periods. Treated and control cells were lysed in ice-cold RIPA buffer (50 mM Tris-HCl pH 7.4, 1% Triton X-100, 1% deoxycholate, 0.1% SDS, 150 mM NaCl, and 1 mM EDTA) containing protease inhibitors (Roche, Mannheim, Germany) and phosphatase inhibitors (EMD Biosciences, Calbiochem, San Diego, Calif.) for 20 minutes on ice. After lysis, cell debris was removed by centrifugation at 12000×g for 10 min. […] Bound antibodies were detected using horseradish peroxidase-conjugated secondary antibodies (Jackson ImmunoResearch Laboratories Inc., West Grove, Pa.) for 1 h at room temperature in 0.5% skim milk-TBS, visualized by treating the membranes with enhanced chemiluminescence reagents (Millipore, Mississauga, ON, Canada) and exposing them to BioMax Light Films (Kodak, Mississauga, ON, Canada). […]

[2] = test system: 60 different human tumor cell lines; experiment: NCI in vitro screening, 60 human tumor cell lines; assay type: cell-based; settings: for GI50: Homo sapiens
Description: A study measuring the in vitro cytotoxic activity of Compound 1 was first performed by the NCI (National Cancer Institute, U.S. National Institutes of Health, Bethesda, Md., USA) against a panel of human cancer cell lines. This screen utilizes 60 different human tumor cell lines, representing cancers of the blood, skin, lung, colon, brain, ovary, breast, prostate, and kidney (More information available at: http://dtp.nci.nih.gov/branches/btb/ivclsp.html.) The compound was sent and tested on three occasions (Mar. 31, 2003; Dec. 1, 2003; Mar. 27, 2007).

human EGFR = biological target: T3, human EGFR (Homo sapiens, UniProt P00533); experiment: Upstate Kinase Profiler, EGFR; assay type: biochemical
T3 construct: purchased Upstate (Kinase Profiler Service; Dundee, UK)
T3 sequence (P00533 25-1210): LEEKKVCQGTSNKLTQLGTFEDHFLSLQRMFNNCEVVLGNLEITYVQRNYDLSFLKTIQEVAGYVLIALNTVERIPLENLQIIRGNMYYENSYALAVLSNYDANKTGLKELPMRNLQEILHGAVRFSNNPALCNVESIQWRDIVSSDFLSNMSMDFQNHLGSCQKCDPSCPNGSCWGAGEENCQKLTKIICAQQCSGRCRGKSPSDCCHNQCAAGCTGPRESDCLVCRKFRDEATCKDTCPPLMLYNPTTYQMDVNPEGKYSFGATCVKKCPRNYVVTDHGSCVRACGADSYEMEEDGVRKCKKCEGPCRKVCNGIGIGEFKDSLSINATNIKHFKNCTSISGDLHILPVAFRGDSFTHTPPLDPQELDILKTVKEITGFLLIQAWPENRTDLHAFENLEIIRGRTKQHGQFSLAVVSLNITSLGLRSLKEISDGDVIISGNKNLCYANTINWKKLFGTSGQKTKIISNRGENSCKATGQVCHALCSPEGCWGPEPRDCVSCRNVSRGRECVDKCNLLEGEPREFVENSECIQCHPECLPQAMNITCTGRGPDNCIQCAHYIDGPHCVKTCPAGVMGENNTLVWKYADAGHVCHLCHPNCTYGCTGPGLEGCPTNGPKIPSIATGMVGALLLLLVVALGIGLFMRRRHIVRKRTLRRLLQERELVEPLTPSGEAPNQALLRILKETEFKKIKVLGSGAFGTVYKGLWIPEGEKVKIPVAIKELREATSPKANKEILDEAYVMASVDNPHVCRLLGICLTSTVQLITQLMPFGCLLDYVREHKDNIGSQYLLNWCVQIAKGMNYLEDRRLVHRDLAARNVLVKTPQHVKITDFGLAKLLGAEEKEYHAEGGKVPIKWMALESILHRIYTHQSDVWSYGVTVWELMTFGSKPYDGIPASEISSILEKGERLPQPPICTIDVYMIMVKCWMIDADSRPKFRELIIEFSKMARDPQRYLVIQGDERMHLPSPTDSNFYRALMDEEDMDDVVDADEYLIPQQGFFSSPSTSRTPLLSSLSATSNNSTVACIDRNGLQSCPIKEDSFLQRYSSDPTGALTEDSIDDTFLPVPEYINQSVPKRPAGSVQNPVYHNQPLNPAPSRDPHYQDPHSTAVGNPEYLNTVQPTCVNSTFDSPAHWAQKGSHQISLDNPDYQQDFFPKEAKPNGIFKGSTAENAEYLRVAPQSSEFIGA
Description: as §1

[3] = Plasma and tissue drug levels after IV bolus and CIV infusion, rat C6 orthotopic brain tumors; assay type: in vivo
Description: 14 days post-tumor implantation, rats received a bolus IV administration of compound 1 (30 mg/kg; 1.5 mL at 0.5 mL per min) followed by continuous IV infusion (5 mg/kg/hour; 0.7 mL/hour) over 3 hours. The animals were then sacrificed by anesthetic overdose and blood was collected by heart puncture. Brain, tumor and liver were snap-frozen in liquid nitrogen and stored at −80° C. until analysis. Blood samples was collected into K2-EDTA tubes and kept on ice for a maximum of 30 min. Samples were then centrifuged at 4° C. and 1500 g (RCF). A volume of 225 μL of rat plasma was added to clean tubes containing 25 μL of aqueous 4% w/v L-ascorbic acid and samples were mixed and stored at −80° C. until analysis.
Binding potential (B.P.) data and Compound 1 plasma levels and tissue levels for each of the seven rats included in the study are presented in Table 23 below and summarized in FIG. 7.

human c-RAF = biological target: T4, human c-RAF (Homo sapiens, UniProt P04049); experiment: Upstate Kinase Profiler, c-RAF; assay type: biochemical
T4 construct: purchased Upstate (Kinase Profiler Service; Dundee, UK)
T4 sequence (P04049 whole entry): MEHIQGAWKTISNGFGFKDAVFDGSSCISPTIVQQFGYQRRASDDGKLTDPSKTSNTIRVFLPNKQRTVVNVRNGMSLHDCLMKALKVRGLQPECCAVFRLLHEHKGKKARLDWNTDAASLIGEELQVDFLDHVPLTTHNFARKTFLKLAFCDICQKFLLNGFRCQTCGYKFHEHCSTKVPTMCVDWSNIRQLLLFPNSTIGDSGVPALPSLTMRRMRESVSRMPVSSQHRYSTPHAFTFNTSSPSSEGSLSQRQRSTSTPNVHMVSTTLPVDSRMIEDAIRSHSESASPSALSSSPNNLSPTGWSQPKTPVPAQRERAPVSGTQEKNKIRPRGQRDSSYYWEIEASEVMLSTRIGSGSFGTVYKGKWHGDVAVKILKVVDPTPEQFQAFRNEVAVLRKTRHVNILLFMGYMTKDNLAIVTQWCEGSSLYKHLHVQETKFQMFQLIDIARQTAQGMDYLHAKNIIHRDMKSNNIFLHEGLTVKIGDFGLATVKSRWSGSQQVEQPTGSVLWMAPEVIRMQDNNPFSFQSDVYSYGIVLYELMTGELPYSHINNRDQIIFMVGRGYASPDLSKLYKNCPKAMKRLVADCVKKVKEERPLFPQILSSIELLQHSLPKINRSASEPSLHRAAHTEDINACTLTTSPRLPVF
Description: as §1

[4] = individual rats, IV bolus 30 mg/kg then CIV 5 mg/kg/hour over 3 hours, listed as ECO-4601

CC(C)=CCC/C(C)=C/CC/C(C)=C/CN1C(=O)c2cccc(O)c2Nc2c(O)cc(O)cc21 [Compound 1, 10-farnesyl-4,6,8-trihydroxy-5,10-dihydrodibenzo[b,e][1,4]diazepin-11-one]
direct inhibition of ERK1 kinase activity (in words) (human MAPK1 (ERK1); 0.5 μM and 5 μM): does not directly inhibit
activity at 0.5 µM (human MAPK1 (ERK1); MAPK1 (ERK1), 0.5 μM, % of enzyme activity over positive control, read-out: Kinase Activity (%) ± SD): 97 ± 2%
activity at 5 µM (human MAPK1 (ERK1); MAPK1 (ERK1), 5 μM, % of enzyme activity over positive control, read-out: Kinase Activity (%) ± SD): 73 ± 3%
direct inhibition of MEK1 kinase activity (in words) (human MEK1; 0.5 μM and 5 μM): does not directly inhibit
activity at 0.5 µM (human MEK1; MEK1, 0.5 μM, % of enzyme activity over positive control, read-out: Kinase Activity (%) ± SD): 106 ± 2%
activity at 5 µM (human MEK1; MEK1, 5 μM, % of enzyme activity over positive control, read-out: Kinase Activity (%) ± SD): 98 ± 1%
effect on protein prenylation (mobility shift of Ras, RAP1A and HDJ2) [1]: does not inhibit protein prenylation; also recorded: no effect
cytotoxic activity in NCI in vitro screening (in words) ([2]; 60 cell lines): low micromolar range
GI50 ([2]; Breast carcinoma cell, breast carcinoma cell lines, read-out: GI50 range): 1.4 to 16.3 µM
GI50 ([2]; CNS (glioblastoma) cell lines, read-out: GI50 range): 2 to 6.5 µM
GI50 ([2]; Colon carcinoma cell, colon carcinoma cell lines, read-out: GI50 range): 3 to 17.3 µM
GI50 ([2]; Ovarian carcinoma cell, ovarian carcinoma cell lines, read-out: GI50 range): 2.5 to 6.2 µM
GI50 ([2]; leukemia cell lines, read-out: GI50 range): 0.9 to 5 µM
GI50 ([2]; melanoma cell lines, read-out: GI50 range): 1.8 to 8.1 µM
GI50 ([2]; non-small cell lung carcinoma cell lines, read-out: GI50 range): 1.9 to 10.8 µM
GI50 ([2]; prostate carcinoma cell lines, read-out: GI50): 3.5 to 9.3 µM
GI50 ([2]; renal carcinoma cell lines, read-out: GI50 range): 2.9 to 14.5 µM
direct inhibition of EGFR kinase activity (in words) (human EGFR; 0.5 μM and 5 μM): does not directly inhibit
activity at 0.5 µM (human EGFR; EGFR, 0.5 μM, % of enzyme activity over positive control, read-out: Kinase Activity (%) ± SD): 128 ± 6%
activity at 5 µM (human EGFR; EGFR, 5 μM, % of enzyme activity over positive control, read-out: Kinase Activity (%) ± SD): 127 ± 9%
tumor compared to liver ([3]; FIG. 7): 7 fold
Brain Drug Level [3, 4]: 527 ng/g and 692 ng/g and 823 ng/g and 1265 ng/g and 941 ng/g and 503 ng/g and 596 ng/g
Liver Drug Level [3, 4]: 11.2 µg/g and 6.91 µg/g and 53.1 µg/g and 61.0 µg/g and 14.2 µg/g and 3.31 µg/g and 2.29 µg/g
Plasma Drug Level [3, 4]: 16000 ng/mL and 12000 ng/mL and 22000 ng/mL and 32000 ng/mL and 11500 ng/mL and 4200 ng/mL and 4100 ng/mL
Tumor Drug Level [3, 4]: 234 µg/g and 8.46 µg/g and 182 µg/g and 273 µg/g and 242 µg/g and 8.98 µg/g and 119 µg/g
concentration at 3 h ([3]; rat, liver, intravenous, FIG. 7, read-out: liver level (mean)): 24800 ng/g
concentration at 3 h ([3]; rat, plasma, intravenous, FIG. 7, read-out: plasma level (mean)): 16200 ng/g
Kp at 3 h ([3]; rat, tumor / plasma, intravenous, FIG. 7, read-out: tumor compared to plasma): 11
concentration at 3 h ([3]; rat, tumor, intravenous, FIG. 7, read-out: accumulation in the tumor (mean level)): 176000 ng/mL
direct inhibition of c-Raf kinase activity (in words) (human c-RAF; 0.5 μM and 5 μM): does not directly inhibit
activity at 0.5 µM (human c-RAF; c-Raf, 0.5 μM, % of enzyme activity over positive control, read-out: Kinase Activity (%) ± SD): 114 ± 12%
activity at 5 µM (human c-RAF; c-Raf, 5 μM, % of enzyme activity over positive control, read-out: Kinase Activity (%) ± SD): 94 ± 2%
